Source: PubChem BioAssay AID489032 (Sanford-Burnham Center for Chemical Genomics, 2010)
The source made the active and inactive calls. How the calls were made is not given here.

What follows are compounds tested on UPR adaptive arm reporter cells, luciferase luminescence (assay: adaptive unfolded protein response reporter activation – cell-based, luciferase luminescence, dose response (AID 489032)).
`O=[N+]([O-])c1ccc(Cl)c(-c2ccc(/C=N/c3c(-c4ccco4)nc4ccccn34)o2)c1` was tested, and the EC50 was 39.3 µM (inactive). In the case of `COc1ccc(S(=O)(=O)N2c3cc(Cl)ccc3Oc3nc4ccccc4nc32)cc1`, the EC50 is reported as > 80 µM (inactive). In the case of `O=C(/C=C1\NC2(CCCC2)Cc2ccccc21)C(=O)N/N=C/c1ccc(O)c(O)c1`, the EC50 is reported as 32 µM (inactive). `Cc1ccc(C2=Nc3ccc(Br)cc3C(c3ccncc3)=NN2)cc1` was tested, and the EC50 was 24 µM (inactive). For `Cc1ccc2nc(SCC(=O)Nc3cc(C(F)(F)F)ccc3N3CCOCC3)[nH]c2c1`, the EC50 was > 80 µM (inactive). In the case of `CC1CCC(C(C)C)C(OC(=O)Cn2c(-c3ccc(Br)cc3)[n+](C)c3ccccc32)C1` (stereo not given), the EC50 is reported as > 80 µM (inactive). For `CN(C)CCCNC(=O)c1ccc(-c2nc(-c3ccc(Cl)cc3)cs2)cc1`, the EC50 was > 80 µM (inactive). In the case of `O=C(N/N=C/c1ccc(O)c(O)c1)c1ccc(CSc2cccc3cccnc23)cc1`, the EC50 is reported as > 80 µM (inactive). With `Cc1nc2cc(NC(=O)CSc3nc4c(C)cccc4cc3C#N)ccc2s1` the EC50 was > 80 µM (inactive). In the case of `Cc1ccc(-n2nc3c(N4CCC(C(=O)NCCc5ccccc5C)CC4)nnc(C)c3c2C)cc1`, the EC50 is reported as > 80 µM (inactive). In the case of `O=C(C[C@@H]1C/C=C/CC[C@H](Cc2ccc(F)cc2)C(=O)OC[C@@H](Cc2ccccc2)NC1=O)N[C@H](CO)Cc1ccccc1`, the EC50 is reported as 18.8 µM. In the case of `C=CCN(CC=C)S(=O)(=O)c1ccc(C(=O)Nc2nc3c(s2)CCc2ccccc2-3)cc1`, the EC50 is reported as 39.9 µM (inactive). In the case of `OCCCn1c(C2CCCN2c2nc(-c3ccc(F)cc3)cs2)nc2cc(Cl)c(N3CCCCC3)cc21` (stereo not given), the EC50 is reported as > 80 µM (inactive). In the case of `COc1cc(CNCCO)cc(Cl)c1OCc1ccc(Cl)cc1Cl`, the EC50 is reported as > 80 µM (inactive). In the case of `CCOc1cc(/C=C2/C(=N)N3C=CSC3=NC2=O)ccc1OCCCOc1ccccc1C`, the EC50 is reported as > 80 µM (inactive). In the case of `COc1cc(C(=O)Nc2cc(-c3nc4cc(C)ccc4o3)ccc2C)cc(OC)c1OC`, the EC50 is reported as > 80 µM (inactive). In the case of `O=C(CC1C[C@H](C(=O)N2CCCCC2)[C@@]2(CCc3ccccc3)c3[nH]c4ccccc4c3CCN2C1=O)NCCC1=CCCCC1` (stereo not given in full), the EC50 is reported as 43 µM (inactive). In the case of `CC1=CC(C)[C@H](/C=N/n2c(=O)[nH]c3c([nH]c4ccc(Br)cc43)c2=O)C(C)C1` (stereo not given in full), the EC50 is reported as > 80 µM (inactive). `O=C(/C=C/c1ccco1)NC(=S)Nc1ccc(O)c(-c2nc3ccccc3s2)c1` was tested, and the EC50 was 10.4 µM. For `Brc1ccc(-c2ccc(/C=N/Nc3nncc(-c4ccccc4)n3)o2)cc1`, the EC50 was 77.6 µM (inactive). `Nc1nc(Nc2cccc(C(F)(F)F)c2)nc(C(F)(F)F)n1` was tested, and the EC50 was 56.6 µM (inactive). For `CCNC(=O)c1c(NC(=O)c2cc(-c3cc(C)ccc3O)n[nH]2)sc2c1CCCC2`, the EC50 was > 80 µM (inactive). In the case of `CCc1ccccc1NC(=O)C(CC)Sc1nc2cc3c(cc2c(=O)n1Cc1ccco1)OCO3` (stereo not given), the EC50 is reported as 14.6 µM. `COc1ccc(Nc2nc(N)c([N+](=O)[O-])c(NC3CCCCC3)n2)cc1` was tested, and the EC50 was > 80 µM (inactive). For `Cn1c(/C=C/c2ccc(Cl)cc2Cl)c([N+](=O)[O-])c(=O)n(C)c1=O`, the EC50 was > 80 µM (inactive). In the case of `CCc1ccc(NC(=O)C(CC)Sc2nc3cc4c(cc3c(=O)n2Cc2ccco2)OCO4)cc1` (stereo not given), the EC50 is reported as > 80 µM (inactive). For `CCOc1cc(/C=C2/NC(=S)NC2=O)ccc1OCc1ccc([N+](=O)[O-])cc1`, the EC50 was > 80 µM (inactive). `N#C/C(=C/c1ccc(N2CCCC2)c([N+](=O)[O-])c1)c1nc2ccccc2[nH]1` was tested, and the EC50 was > 80 µM (inactive). For `Cc1ccc(Cn2c(C(C)Nc3nc(-c4ccc(F)cc4)cs3)nc3cc(Cl)c(Cl)cc32)cc1` (stereo not given), the EC50 was > 80 µM (inactive). For `Oc1ccc(/C=N/Nc2cc(N3CCOCC3)nc(N3CCOCC3)n2)cc1O`, the EC50 was > 80 µM (inactive). In the case of `Cc1ccc(Nc2nc3ccc(Cl)cc3n3cnnc23)cc1F`, the EC50 is reported as > 80 µM (inactive). For `CCC(C)(C)C1CCC2(CC1)NC(=O)N(CC(=O)N1CCN(S(=O)(=O)c3cc(C)ccc3C)CC1)C2=O` (stereo not given), the EC50 was 27.2 µM (inactive). For `CCOC(=O)c1c(NC(=O)Cc2cccs2)sc(C(=O)NC2CCCCC2)c1C`, the EC50 was > 80 µM (inactive). With `Cc1nc2ccccc2n1-c1nc(-c2ccco2)cc(C(F)(F)F)n1` the EC50 was > 80 µM (inactive). For `CCCCCCCCCCOC(=O)Cn1c(COc2ccc(Cl)cc2)[n+](C)c2ccccc21`, the EC50 was > 80 µM (inactive). For `Cc1nc(NC(=O)c2cc3c(C)nn(-c4ccccc4)c3s2)sc1C(=O)Nc1ccccc1`, the EC50 was 41.3 µM (inactive). With `Cc1ccc(C(=O)N2N=C(c3ccc(Br)cc3)CC2c2ccccc2O)cc1` (stereo not given) the EC50 was > 80 µM (inactive). With `COc1ccc(-c2nn(-c3ccccc3)cc2/C=N/N2C(=O)CSC2=S)cc1` the EC50 was > 80 µM (inactive). For `CCCCCC(=O)Nc1ccc(C(=O)N/N=C/c2ccc([N+](=O)[O-])cc2)cc1`, the EC50 was > 80 µM (inactive). With `CCc1nc(C)cn1S(=O)(=O)c1cc([N+](=O)[O-])ccc1Cl` the EC50 was > 80 µM (inactive). With `CC1=Nc2ccccc2/C1=C\c1sc(Nc2ccc(C)cc2)nc1O` the EC50 was > 80 µM (inactive). `CC(C)CN=C(NS(=O)(=O)c1ccccc1)C(Cl)(Cl)Cl` was tested, and the EC50 was > 80 µM (inactive). `CCCc1nc2c(c(=O)c3ccccc3n2C)c(=O)n1C1CCCCCC1` was tested, and the EC50 was > 80 µM (inactive). In the case of `CCOC(=O)c1nnc(-c2ccc(C)cc2)nc1Sc1ccccc1Cl`, the EC50 is reported as > 80 µM (inactive). With `Nc1c(C(=O)Nc2ccc(S(=O)(=O)N3CCCC3)cc2)sc2nc3ccc(OC(F)(F)F)cc3cc12` the EC50 was 12 µM. In the case of `Cc1ccc(NC(=O)c2nc[nH]c2C(=O)NCCCNC(=O)c2[nH]cnc2C(=O)Nc2ccc(C)cc2)cc1`, the EC50 is reported as > 80 µM (inactive). In the case of `CN(C)S(=O)(=O)c1ccc(N2CCCC2)c(C(=O)Nc2nccs2)c1`, the EC50 is reported as 50 µM (inactive). For `CC(C)=CCCC1(C)C=Cc2c(ccc3c2[nH]c2cc(O)c(C)cc23)O1` (stereo not given), the EC50 was > 80 µM (inactive). In the case of `CC(C)N(C(=O)[C@H]1C[C@H](CC(=O)NCC23CC4CC(CC(C4)C2)C3)C(=O)N2CCc3c([nH]c4ccc(Cl)cc34)[C@]12C)C(C)C`, the EC50 is reported as > 80 µM (inactive). With `COc1ccc(-c2nn(C)c(=O)c3ccccc23)cc1NC(=O)Cn1nc(C)c2ccccc2c1=O` the EC50 was 28 µM (inactive). In the case of `CCC(=O)Nc1ccc(NC(=O)CSc2nc3cc4c(cc3cc2C)CCC4)cc1`, the EC50 is reported as > 80 µM (inactive). For `C#CCOCCOCCOCCNc1nc(N2CCN(C(=O)CCCCCCCCCCNC(=O)[C@H](CCCCN)n3cc(C[C@@H](C)CC)nn3)CC2)nc(N2CCN(C(=O)CCCCCCCCCCNC(=O)[C@H](CCCN=C(N)N)n3cc(C[C@@H](C)CC)nn3)CC2)n1`, the EC50 was > 80 µM (inactive). With `CN(C)CCCN(C(=O)c1ccc(S(=O)(=O)N2CCCCCC2)cc1)c1nc2ccc(Br)cc2s1` the EC50 was > 80 µM (inactive). For `O=C(NC(=S)Nc1ccc(NC(=O)c2cccs2)cc1)c1cc2ccccc2o1`, the EC50 was > 80 µM (inactive). With `O=C1NC(=O)N(Cc2ccccc2)C(=O)/C1=C\c1ccco1` the EC50 was > 80 µM (inactive). For `Cn1nc(C(F)(F)F)c(/C=N/OC(=O)c2ccccc2)c1SCc1ccc(Cl)cc1`, the EC50 was 35.5 µM (inactive). With `Cc1ccc(O)c(NC(=S)NC(=O)Cc2ccc(Cl)cc2)c1` the EC50 was 27.1 µM (inactive). In the case of `COc1cc(NC(=O)c2ccco2)c(C(=O)OCC(=O)c2c[nH]c3ccccc23)cc1OC`, the EC50 is reported as > 80 µM (inactive). With `O=C(O)c1ccc(N2C(=O)/C(=C/c3ccc(-c4ccc([N+](=O)[O-])cc4)o3)C=C2c2ccccc2)cc1` the EC50 was > 80 µM (inactive). With `CCN(CC)c1ccc(-c2nn3c(-c4ccccc4OC)nnc3s2)cc1` the EC50 was > 80 µM (inactive).
